Test: xn = mol fraction of the nth substance listed

CC(=O)[O-].CCCCC[N+](CCCCC)(CCCCC)CCCCC + CCCCCCCCCCCCOS(=O)(=O)[O-].[Na+] + O
viscosity [mPa·s], 100 kPa
Details	x2 = 1.81e-06, x1 = 0.0001802	x2 = 3.62e-06, x1 = 0.0001802	x2 = 5.42e-06, x1 = 0.0001802	x2 = 7.23e-06, x1 = 0.0001802	x2 = 9.04e-06, x1 = 0.0001802	x2 = 1.085e-05, x1 = 0.0001802	x2 = 1.266e-05, x1 = 0.0001802	x2 = 1.446e-05, x1 = 0.0001802	x2 = 1.627e-05, x1 = 0.0001802	x2 = 1.808e-05, x1 = 0.0001802
293.15 K	1.002	1.003	1.005	1.005	1.007	1.007	1.007	1.007	1.007	1.008
298.15 K	0.89	0.893	0.894	0.896	0.898	0.9	0.902	0.902	0.904	0.904
303.15 K	0.784	0.786	0.789	0.792	0.793	0.796	0.796	0.796	0.798	0.796
308.15 K	0.701	0.703	0.704	0.706	0.707	0.707	0.708	0.708	0.709	0.709
313.15 K	0.636	0.638	0.641	0.643	0.645	0.646	0.646	0.647	0.648	0.648
318.15 K	0.587	0.587	0.589	0.59	0.591	0.593	0.593	0.597	0.598	0.599

CC(=O)[O-].CCCCC[N+](CCCCC)(CCCCC)CCCCC + CCCCCCCCCCCC[N+](C)(C)C.[Br-] + O
viscosity [mPa·s], 100 kPa
Details	x2 = 5.424e-05, x1 = 0.0001802	x2 = 0.0001085, x1 = 0.0001801	x2 = 0.0001627, x1 = 0.0001801	x2 = 0.0002169, x1 = 0.0001801	x2 = 0.0002711, x1 = 0.0001801	x2 = 0.0003254, x1 = 0.0001801	x2 = 0.0003796, x1 = 0.0001801	x2 = 0.0004338, x1 = 0.0001801	x2 = 0.000488, x1 = 0.0001801	x2 = 0.0005421, x1 = 0.0001801
293.15 K	1.029	1.031	1.033	1.034	1.034	1.035	1.035	1.036	1.036	1.036
298.15 K	0.921	0.924	0.928	0.928	0.929	0.929	0.93	0.93	0.931	0.931
303.15 K	0.811	0.813	0.816	0.819	0.822	0.825	0.825	0.828	0.829	0.83
308.15 K	0.728	0.731	0.731	0.733	0.734	0.737	0.741	0.745	0.746	0.749
313.15 K	0.659	0.661	0.664	0.666	0.667	0.669	0.669	0.67	0.671	0.671
318.15 K	0.609	0.609	0.611	0.612	0.613	0.615	0.615	0.619	0.62	0.621

O=P([O-])(O)O.[Na+] + CCCCCCCCCCCC[N+](C)(C)C.[Br-] + O
298.15 K, 101 kPa
Details	electrical conductivity [S/m]
x2 = 0, x1 = 0.0001802	0.1015
x2 = 0, x1 = 0.001799	0.7566
x2 = 3.79e-06, x1 = 0.0001802	0.1031
x2 = 5.64e-06, x1 = 0.001799	0.7559
x2 = 7.76e-06, x1 = 0.0001802	0.1049
x2 = 1.11e-05, x1 = 0.001799	0.7567
x2 = 1.317e-05, x1 = 0.0001802	0.1075
x2 = 1.858e-05, x1 = 0.0001802	0.1101
x2 = 1.893e-05, x1 = 0.001799	0.7581
x2 = 2.345e-05, x1 = 0.0001802	0.1124
x2 = 2.603e-05, x1 = 0.001799	0.7597
x2 = 3.427e-05, x1 = 0.0001802	0.1175
x2 = 3.55e-05, x1 = 0.001799	0.7617
x2 = 4.401e-05, x1 = 0.0001802	0.1222
x2 = 4.714e-05, x1 = 0.001799	0.7635
x2 = 5.411e-05, x1 = 0.0001802	0.127
x2 = 5.843e-05, x1 = 0.001799	0.766
x2 = 6.457e-05, x1 = 0.0001802	0.132
x2 = 6.953e-05, x1 = 0.001799	0.7685
x2 = 7.467e-05, x1 = 0.0001801	0.1368
x2 = 8.082e-05, x1 = 0.001799	0.771
x2 = 8.477e-05, x1 = 0.0001801	0.1416
x2 = 9.228e-05, x1 = 0.001799	0.7738
x2 = 9.541e-05, x1 = 0.0001801	0.1467
x2 = 0.0001034, x1 = 0.001799	0.777
x2 = 0.0001055, x1 = 0.0001801	0.1516
x2 = 0.0001145, x1 = 0.001799	0.7803
x2 = 0.0001154, x1 = 0.0001801	0.1563
x2 = 0.0001255, x1 = 0.0001801	0.161
x2 = 0.0001258, x1 = 0.001799	0.7836
x2 = 0.0001363, x1 = 0.001799	0.7867
x2 = 0.0001371, x1 = 0.0001801	0.1667
x2 = 0.0001469, x1 = 0.001798	0.7899
x2 = 0.0001488, x1 = 0.0001801	0.1723
x2 = 0.0001578, x1 = 0.001798	0.793
x2 = 0.0001602, x1 = 0.0001801	0.1777
x2 = 0.0001687, x1 = 0.001798	0.7962
x2 = 0.0001715, x1 = 0.0001801	0.1831
x2 = 0.0001796, x1 = 0.001798	0.7996
x2 = 0.0001829, x1 = 0.0001801	0.1884
x2 = 0.0001905, x1 = 0.001798	0.8028
x2 = 0.0001941, x1 = 0.0001801	0.1937
x2 = 0.0002011, x1 = 0.001798	0.8057
x2 = 0.0002054, x1 = 0.0001801	0.1991
x2 = 0.0002117, x1 = 0.001798	0.8081
x2 = 0.0002166, x1 = 0.0001801	0.2043
x2 = 0.0002224, x1 = 0.001798	0.8103
x2 = 0.0002276, x1 = 0.0001801	0.2096
x2 = 0.0002326, x1 = 0.001798	0.8125
x2 = 0.0002384, x1 = 0.0001801	0.2146
x2 = 0.0002431, x1 = 0.001798	0.8147
x2 = 0.0002492, x1 = 0.0001801	0.2196
x2 = 0.0002537, x1 = 0.001798	0.8169
x2 = 0.0002601, x1 = 0.0001801	0.2239
x2 = 0.0002641, x1 = 0.001798	0.8191
x2 = 0.0002692, x1 = 0.0001801	0.2266
x2 = 0.0002744, x1 = 0.001798	0.8212
x2 = 0.0002795, x1 = 0.0001801	0.2291
x2 = 0.0002848, x1 = 0.001798	0.8234
x2 = 0.0002918, x1 = 0.0001801	0.2316
x2 = 0.0003062, x1 = 0.0001801	0.234
x2 = 0.0003222, x1 = 0.0001801	0.2367
x2 = 0.0003394, x1 = 0.0001801	0.2394
x2 = 0.000366, x1 = 0.0001801	0.2432
x2 = 0.0003922, x1 = 0.0001801	0.2467

CC[n+]1ccn(C)c1.O=S(=O)([N-]S(=O)(=O)C(F)(F)F)C(F)(F)F + CCCCCCCCCCCC[n+]1ccn(C)c1.O=S(=O)([N-]S(=O)(=O)C(F)(F)F)C(F)(F)F
100 kPa, x2 = 0
Details	viscosity [mPa·s]
293 K	36
313 K	18

c1ccccc1 + CCCCCCCC[n+]1ccc2ccccc2c1.O=S(=O)([N-]S(=O)(=O)C(F)(F)F)C(F)(F)F
101 kPa, x1 = 1
Details	viscosity [mPa·s]
308.15 K	0.53
328.15 K	0.42

CO/N=C(\C(=O)N[C@@H]1C(=O)N2C(C(=O)[O-])=C(CSc3nc(=O)c(=O)[n-]n3C)CS[C@H]12)c1csc(N)n1.[Na+].[Na+] + CCCCCCCC[n+]1ccc(C)cc1.[Br-] + O
viscosity [mPa·s], 100 kPa
Details	x1 = 0.0003495, x2 = 0	x1 = 0.0008732, x2 = 0	x1 = 0.001391, x2 = 0	x1 = 0.002502, x2 = 0	x1 = 0.00312, x2 = 0	x1 = 0.003888, x2 = 0	x1 = 0.004767, x2 = 0	x1 = 0.005484, x2 = 0
288.15 K	1.196	1.273	1.365	1.604	1.745	1.964	2.205	2.45
293.15 K	1.053	1.12	1.2	1.399	1.527	1.701	1.918	2.122
298.15 K	0.935	0.994	1.062	1.231	1.348	1.495	1.674	1.858
303.15 K	0.829	0.885	0.945	1.1	1.195	1.323	1.48	1.638
308.15 K	0.744	0.794	0.849	0.982	1.07	1.184	1.322	1.455

CO + CCCCCCCCn1cc[n+](C)c1.[Cl-]
Details	viscosity [mPa·s]
313.15 K, 101 kPa, x1 = 1	0.444

CO/N=C(\C(=O)N[C@@H]1C(=O)N2C(C(=O)[O-])=C(CSc3nc(=O)c(=O)[n-]n3C)CS[C@H]12)c1csc(N)n1.[Na+].[Na+] + CCCCCC[n+]1ccc(C)cc1.[Br-] + O
viscosity [mPa·s], 100 kPa
Details	x1 = 0.0003495, x2 = 0	x1 = 0.0008732, x2 = 0	x1 = 0.001391, x2 = 0	x1 = 0.002502, x2 = 0	x1 = 0.00312, x2 = 0	x1 = 0.003888, x2 = 0	x1 = 0.004767, x2 = 0	x1 = 0.005484, x2 = 0
288.15 K	1.196	1.273	1.365	1.604	1.745	1.964	2.205	2.45
293.15 K	1.053	1.12	1.2	1.399	1.527	1.701	1.918	2.122
298.15 K	0.935	0.994	1.062	1.231	1.348	1.495	1.674	1.858
303.15 K	0.829	0.885	0.945	1.1	1.195	1.323	1.48	1.638
308.15 K	0.744	0.794	0.849	0.982	1.07	1.184	1.322	1.455

CC[n+]1ccn(C)c1.F[B-](F)(F)F + CCCCCC[n+]1ccn(C)c1.F[B-](F)(F)F
101 kPa, x1 = 1
Details	viscosity [mPa·s]
299.15 K	34.52
308.15 K	25.54

Reference: the CheMixHub ionic liquid set
